From US20070167412A1, “HALOCOMBSTATINS AND METHODS OF SYNTHESIS THEREOF” (ARIZONA BOARD OF REGENTS, priority 2003, published 2007) come the findings set out here.

Values after ≈ are worked out from the molar mass of the structure shown. Read-outs that look alike come from different tables or passages of the source.

One series relates to Pancreas BXPC-3. Description: human cancer cell growth inhibition, sulforhodamine B assay. The class given is cell-based. As to conditions: Table I, 48 hours; for GI50: Homo sapiens, BXPC-3, read-out: Human cancer cell line inhibition (GI50) Pancreas-a BXPC-3. The procedure: (§1) Inhibition of human cancer cell growth was assessed using the National Cancer Institute's standard sulforhodamine B assay. After 48 hours, the plates were fixed with trichloracetic acid, stained with sulforhodamine B and read with an automated microplate reader. […] Inhibition of the mouse leukemia P388 cells was assessed in a 10% horse serum/Fisher medium soution for 24 hours, followed by a 48 hour incubation with serial dilutions of the compounds. Cell growth inhibition (ED50) was then calculated using a Z1 Becleman/Coulter particle counter.
In general terms: Sulforhodamine B stains cellular protein and so reports cell mass.

The test system of the next series is Prostate DU-145. The description is as above. The class given is cell-based. The note with it: Table I, 48 hours; for GI50: Homo sapiens, DU-145, read-out: Human cancer cell line inhibition (GI50) Prostate DU-145. How it is done:
as §1

The subject of a further series is Lung-NSC NCI-H460. The description is as above. The class given is cell-based. As to conditions: Table I, 48 hours; for GI50: Homo sapiens, NCI-H460, read-out: Human cancer cell line inhibition (GI50) Lung-NSC NCI-H460. The procedure:
as §1

Another series concerns Colon KM20L2. The description is as above. In kind it is cell-based. The note with it: Table I, 48 hours; for GI50: Homo sapiens, KM-20L2, read-out: Human cancer cell line inhibition (GI50) Colon KM20L2. The procedure:
as §1

For the next series, the system named is CNS SF268. Described as above. In kind it is cell-based. As to conditions: Table I, 48 hours; for GI50: Homo sapiens, SF-268, read-out: Human cancer cell line inhibition (GI50) CNS SF268. The procedure: as §1
A further series deals with Breast MCF-7. Described as above. In kind it is cell-based. As to conditions: Homo sapiens, MCF7; Table I; 48 hours; read-out: Human cancer cell line inhibition (GI50) Breast adn MCF-7. The procedure: as §1
The next series has as its system tubulin. The series can be described thus: inhibition of [3H]colchicine binding to tubulin. The note with it: 1.0 μM tubulin, 5.0 μM [3H]colchicine, inhibitor at 1.0 μM, 10 minutes at 37° C. How it is done: (§2) Tubulin polymerization was evaluated by turbidimetry at 350 nm using Beckman DU7400/7500 spectrophotometers as described in detail elsewhere. […] Varying concentrations of drug were preincubated with 10 μM:M ([…]) purified tubulin (See Hamel, E., et al., Separation of Active Tubulin and Microtubule-associated Proteins by Ultracentrifiigation and Isolation of a Component Causing the Formation of Microtubule Bundles, Biochemistry 1984, 23, 4173-4184). Samples were chilled on ice, GTP (0.4 mM) was added, and polymerization was followed at 30° C. The parameter measured was extent of the reaction after 20 minutes. Coichicine binding was measured as described in detail previously. Reaction mixtures contained 1.0 μM :M tubulin, 5.0:M, [^3H]colchicine (from Dupont), and inhibitor at 1.0 μM:M. Incubation was for 10 minutes at 37° C.

A further series concerns T1, purified tubulin.
T1 construct: other: 10 μM tubulin, GTP 0.4 mM, 30° C., extent after 20 minutes
Description: inhibition of tubulin polymerization (turbidimetry). The class given is biochemical. The procedure:
as §2
Tubulin Evaluations: Tubulin polymerization was evaluated by turbidimetry at […] using Beckman DU7400/7500 spectrophotometers as known to one of skill in the art. Varying concentrations of the compound were preincubated with 10 μM. […]

A further series deals with Staphylococcus aureus. Description: reference broth microdilution susceptibility assay. The class given is cell-based. The note with it: Table III. The source says:
(§3) The halocombstatins of the present invention appear to also have antimicrobial properties. More specifically, they appear to have antifungal and/or antibacterial properties. Antimicrobial evaluation of the halocombstatins involved susceptibility testing performed by the reference broth microdilution assay. The antimicrobial activities of the halocombstatins were very similar, targeting Gram-positive bacteria and the pathogenic fungi Cryptococcus neoformans, and results are shown in Table III.
(§4) (See Pettit, G. R., et al., Antineoplastic Agents 463. Synthesis of Combretastatin A-3 Diphosphates, Anticancer Drug Design 2000, 15, 397-404.) To determine the antimicrobial activity of the present compounds, susceptibility testing was performed by the reference broth microdilution assay. (See National Committee for Clinical Laboratory Standards. Methods for Dilution Antimicrobial Susceptibility Tests for Bacteria that Grow Aerobically. Approved Standard M7-A5. Wayne, P A: NCCLS, 2000. National Committee for Clinical Laboratory Standards. Reference Method for Broth Dilution Antifungal Susceptibility Testing of Yeasts. Aproved Standard M27-A. Wayne, P A: NCCLS, 1997.) The antimicrobial activities of the halocombretastatins of the present invention were very similar, targeting Gram-positive bacteria and Cryptococcus neoformans. This is illustrated in further detail in Table III. Thus, several of the novel compounds of the present invention appear to have potential as antimicrobial agents, such as antifingals and antibacterials.
Background: Broth dilution looks for growth in wells or tubes with falling amounts of substance.

In a further series the test system is Cryptococcus neoformans. Description: reference broth microdilution susceptibility assay. In kind it is cell-based. The note with it: Table III.
From the text: as §3, §4

Series [1] has as its system Stenotrophomonas maltophilia. The series can be described thus: reference broth microdilution susceptibility assay. The class given is cell-based. The note with it: Table III.
From the text: as §3, §4

A further series concerns Neisseria gonorrhoeae. The series can be described thus: reference broth microdilution susceptibility assay. In kind it is cell-based. The note with it: Table III.
From the text: as §3, §4

In another series the test system is Enterobacter cloacae. The series can be described thus: reference broth microdilution susceptibility assay. In kind it is cell-based. As to conditions: Table III.
From the text: as §3, §4

A further series relates to Enterococcus faecalis. Description: reference broth microdilution susceptibility assay. The note with it: Table III. The class given is cell-based.
From the text: as §3, §4

In the next series the test system is Candida albicans. The series can be described thus: reference broth microdilution susceptibility assay. The note with it: Table III. In kind it is cell-based.
From the text: as §3, §4

Another series deals with Escherichia coli. Description: reference broth microdilution susceptibility assay. In kind it is cell-based. The note with it: Table III.
From the text: as §3, §4

For a further series, the system named is Streptococcus pneumoniae. The series can be described thus: reference broth microdilution susceptibility assay. The class given is cell-based. The note with it: Table III.
From the text: as §3, §4

Another series relates to Micrococcus luteus. Description: reference broth microdilution susceptibility assay. In kind it is cell-based. The note with it: Table III.
From the text: as §3, §4

Usually GI50 stands for the concentration that inhibits growth by half. In general, melting point refers to the temperature of the solid-liquid transition. Consider `COc1ccc(/C=C/c2cc(Cl)c(OC)c(OC)c2)cc1O` [Compound 12b, 3-Chloro-4,4′,5-trimethoxy-3′-hydroxy-E-stilbene], for which the melting point is 138 to 140 °C. For the same molecule, in the series with Pancreas BXPC-3, the concentration for 50% growth inhibition (GI50) was 0.59 µg/mL (≈ 1.84 µM). Moreover, in the series on Prostate DU-145, the GI50 came to 0.038 µg/mL (≈ 0.118 µM). The GI50 in the series on Lung-NSC NCI-H460 is 0.034 µg/mL (≈ 0.106 µM). Further, the concentration for 50% growth inhibition (GI50) in the series on Colon KM20L2 was 1.4 µg/mL (≈ 4.36 µM). In addition, the GI50 in the series on CNS SF268 turned out to be 0.048 µg/mL (≈ 0.15 µM). Moreover, the concentration for 50% growth inhibition (GI50) with Breast MCF-7 is 0.041 µg/mL (≈ 0.128 µM).
`COc1ccc(/C=C\c2cc(I)c(OC)c(I)c2)cc1C(C)=O` [Compound 22c, 3,5-diiodo-4,4′-dimethoxy-3′-acetyl-z-stilbene] had a melting point of 121 to 122 °C.
One may read the IC50 as the concentration needed to halve the response being measured. Consider “combretastatin A-4 [Compound 1a, reference compound]”, for which, in the series with tubulin, the “Inhibition of colchicine binding % inhibition ± S.D.” value is 81 ± 3%. The “Human cancer cell line inhibition (GI50) Pancreas-a BXPC-3” value with Pancreas BXPC-3 came out at 0.39 µg/mL. The “Human cancer cell line inhibition (GI50) Prostate DU-145” value in the series on Prostate DU-145 worked out at 0.0008 µg/mL. For the same molecule, in the series on Lung-NSC NCI-H460, the “Human cancer cell line inhibition (GI50) Lung-NSC NCI-H460” value was found to be 0.0006 µg/mL. In addition, in the series on Colon KM20L2, the “Human cancer cell line inhibition (GI50) Colon KM20L2” value is 0.061 µg/mL. Also, in the series with CNS SF268, the “Human cancer cell line inhibition (GI50) CNS SF268” value is under 0.001 µg/mL. In addition, the IC50 in the series with purified tubulin (text b32, read-out: IC50, inhibition of the polymerization reaction) came to 1800 nM.
`COc1ccc(/C=C\c2cc(Br)c(OC)c(OC)c2)cc1O` [Compound 13a, 3-Bromo-4,4′,5-trimethoxy-3′-hydroxy-Z-stilbene] returned a melting point of 108 to 109 °C. The “Inhibition of colchicine binding % inhibition ± S.D.” value in the series with tubulin turned out to be 89 ± 2%. In the series on Pancreas BXPC-3, the GI50 was found to be 0.16 µg/mL (≈ 0.438 µM). In addition, in the series on Prostate DU-145, the GI50 was under 0.001 µg/mL. Moreover, the 50% growth inhibitory concentration (GI50) with Lung-NSC NCI-H460 was under 0.001 µg/mL. Besides, the concentration for 50% growth inhibition (GI50) in the series on Colon KM20L2 was 0.086 µg/mL (≈ 0.235 µM). Also, the GI50 in the series with CNS SF268 was under 0.001 µg/mL. In addition, in the series on Breast MCF-7, the GI50 is under 0.001 µg/mL. The “Range of minimum inhibitory concentration, Staphylococcus aureus” value in the series on Staphylococcus aureus is “* (no inhibition at 64 μg/ml)”. The “Range of minimum inhibitory concentration, Cryptococcus neoformans” value in the series on Cryptococcus neoformans is listed as “* (no inhibition at 64 μg/ml)”. Also, in series [1], the “Range of minimum inhibitory concentration, Stenotrophomonas maltophilia” value is “* (no inhibition at 64 μg/ml)”. Also, the “Range of minimum inhibitory concentration, Neisseria gonorrhoeae” value in the series with Neisseria gonorrhoeae was 32 to 64 µg/mL. The “Range of minimum inhibitory concentration, Enterobacter cloacae” value in the series with Enterobacter cloacae is on record as “* (no inhibition at 64 μg/ml)”. Further, in the series on Enterococcus faecalis, the “Range of minimum inhibitory concentration, Enterococcus faecalis” value was “* (no inhibition at 64 μg/ml)”. Moreover, the “Range of minimum inhibitory concentration, Candida albicans” value in the series on Candida albicans is listed as “* (no inhibition at 64 μg/ml)”. Besides, the “Range of minimum inhibitory concentration, Escherichia coli” value in the series with Escherichia coli was “* (no inhibition at 64 μg/ml)”. Moreover, the “Range of minimum inhibitory concentration, Streptococcus pneumoniae” value with Streptococcus pneumoniae was “* (no inhibition at 64 μg/ml)”. Moreover, the “Range of minimum inhibitory concentration, Micrococcus luteus” value in the series on Micrococcus luteus lay within 32 to 64 µg/mL. In the series on purified tubulin (10 μM tubulin, GTP 0.4 mM, 30° C., extent after 20 minutes, read-out: Inhibition of polymerization IC50 ± S.D.), the IC50 amounted to 1500 ± 200 nM.
`COc1ccc(/C=C/c2cc(I)c(OC)c(OC)c2)cc1O` [Compound 14b, 3-Iodo-4,4′,5-trimethoxy-3′-hydroxy-E-stilbene] registered a melting point of 111 to 113 °C. Moreover, the GI50 in the series on Pancreas BXPC-3 was 2.7 µg/mL (≈ 6.55 µM). Besides, the GI50 in the series on Prostate DU-145 was determined as 0.27 µg/mL (≈ 0.655 µM). For the same molecule, the 50% growth inhibitory concentration (GI50) with Lung-NSC NCI-H460 stood at 0.21 µg/mL (≈ 0.509 µM). In addition, the GI50 in the series with Colon KM20L2 is 1.7 µg/mL (≈ 4.12 µM). Besides, the 50% growth inhibitory concentration (GI50) in the series on CNS SF268 amounted to 0.55 µg/mL (≈ 1.33 µM). The GI50 in the series with Breast MCF-7 was 0.18 µg/mL (≈ 0.437 µM). Moreover, the “Range of minimum inhibitory concentration, Staphylococcus aureus” value with Staphylococcus aureus was 8 to 64 µg/mL. In addition, the “Range of minimum inhibitory concentration, Cryptococcus neoformans” value with Cryptococcus neoformans is 64 µg/mL. Also, the “Range of minimum inhibitory concentration, Stenotrophomonas maltophilia” value in [1] is “* (no inhibition at 64 μg/ml)”. For the same molecule, the “Range of minimum inhibitory concentration, Neisseria gonorrhoeae” value in the series on Neisseria gonorrhoeae was 4 to 16 µg/mL. For the same molecule, the “Range of minimum inhibitory concentration, Enterobacter cloacae” value with Enterobacter cloacae was “* (no inhibition at 64 μg/ml)”. The “Range of minimum inhibitory concentration, Enterococcus faecalis” value with Enterococcus faecalis is “* (no inhibition at 64 μg/ml)”. Moreover, in the series on Candida albicans, the “Range of minimum inhibitory concentration, Candida albicans” value is reported as “* (no inhibition at 64 μg/ml)”. Moreover, the “Range of minimum inhibitory concentration, Escherichia coli” value with Escherichia coli is “* (no inhibition at 64 μg/ml)”. Further, the “Range of minimum inhibitory concentration, Streptococcus pneumoniae” value in the series with Streptococcus pneumoniae was “* (no inhibition at 64 μg/ml)”. Moreover, the “Range of minimum inhibitory concentration, Micrococcus luteus” value in the series with Micrococcus luteus was in the range of 4 to 8 µg/mL.
